Measured values published in patent US20240261291A1, “Ophthalmic Compositions and/or Methods for Presbyopia, Mydriasis and/or Ocular Discomfort Management” (Brien Holden Vision Institute Limited, priority 2021, published 2024).

Tests used:
[1] = tested on: pupillary diameter of the eye; assay: Pupillary diameter over 2 hours after a single eye drop of caffeine 2 wt. % in water, 5 individuals (Grand Seiko autorefractor); format: in vivo, human; conditions: for average decrease in pupillary diameter compared to baseline: 5 individuals; for maximal decrease in pupillary diameter: largest among individuals
Protocol: FIG. 1 is a schematic of the pupil diameter of eyes prescribed with caffeine 2% over time.
FIG. 1 illustrates the baseline pupillary diameter and the pupillary diameter over 2 hours in a group of 5 individuals (3 males and 2 females, age ranging from 31 to 45 yrs) prescribed with an ophthalmic composition comprising caffeine. A topical ophthalmic composition comprising caffeine 2 wt. % in water was instilled (as a single eye drop in the range of from 0.025 mL to 0.075 ml, such as an average single drop size of about 0.05 mL) in one eye of each of the individuals. Pupillary diameter at baseline and at subsequent time points was captured using a Grand Seiko autorefractor for 11 secs and data summarized. The room illumination was standardized at 150 to 200 lux. As observed from FIG. 1, there was a decrease in pupillary diameter post instillation. On average, compared to baseline, the decrease in pupillary diameter at 30 mins and 1 hr post instillation was 0.3 mm and was approximately 0.2 mm at 2 hrs. There was some variation between the various individuals, however the maximal […] in pupillary diameter at 30 mins was 0.4 mm, was approximately 0.8 mm at 1 hr and was approximately 0.6 mm at 2 hrs. Such an ophthalmic composition, as disclosed herein, can be used according to the methods provided herein to reduce the pupillary diameter of a treated eye of a subject and be effective in treating or managing symptoms related to presbyopia and/or mydriasis and/or eyes with disorders requiring light modulation such as one or more of vision disturbances.

[2] = tested on: pupillary diameter of the eye; assay: Reversal of Tropicamide 1% mydriasis by caffeine 2.0 w/v % in saline, left eye only, person (Grand Seiko autorefractor); format: in vivo, human; conditions: for Pupillary diameter Left eye: given 50 mins after Tropicamide 1%
Protocol: FIG. 4 illustrates that difference in pupil diameter in the right and left eyes of an individual, wherein Tropicamide 1% was instilled in both eyes and approximately 50 minutes later, an ophthalmic composition comprising Caffeine at 2 w/v. % was instilled in the left eye only.
The following Table 3 illustrates the pupil diameter of a person. An aqueous solution of 1% Tropicamide was instilled in both eyes. Pupillary diameter was measured over a 15 second interval with a Grand Seiko autorefractor with the individual fixating at an object positioned 1 meter away. Pupillary diameter was dynamically sampled at multiple time points over the 15 second interval. Pupillary diameters for both eyes were measured prior to instillation (baseline), soon after instillation of 1% Tropicamide and then 20 minutes and 50 minutes post instillation. […] At this time point, a single drop (0.05 mL) of 2.0 w/v % Caffeine in Saline (0.9 wt. % NaCl) (composition 1) was instilled in the left eye only. The individual was monitored 30 minutes, 60 minutes, 2 hrs, 4 hrs and 6.5 hrs from instillation of Caffeine.
FIG. 4 illustrates the difference in pupillary diameter between the right and left eyes 4 hrs from the instillation of Tropicamide 1% in both eyes and […] from instillation of Caffeine 2 w/v % in the left eye.

Cn1c(=O)c2c(ncn2C)n(C)c1=O [Caffeine, caffeine (1,7 methylxanthine)]
average decrease in pupillary diameter compared to baseline ([1]; 30 mins post instillation, 150 to 200 lux): 0.3 mm
maximal decrease in pupillary diameter ([1]; 30 mins): 0.4 mm
average decrease in pupillary diameter compared to baseline ([1]; 1 hr post instillation): 0.3 mm
maximal decrease in pupillary diameter ([1]; 1 hr): approximately 0.8 mm
average decrease in pupillary diameter compared to baseline ([1]; 2 hrs post instillation): approximately 0.2 mm
maximal decrease in pupillary diameter ([1]; 2 hrs): approximately 0.6 mm
Difference in pupillary diameter (Right − Left) ([2]; 30 mins post instillation of Caffeine 2 w/v % in left eye, both eyes Tropicamide 1%): 0.5 mm
Difference in pupillary diameter (Right − Left) ([2]; 60 mins post instillation of Caffeine 2 w/v % in left eye, both eyes Tropicamide 1%): 0.7 mm
Difference in pupillary diameter (Right − Left) ([2]; 2 hrs post instillation of Caffeine 2 w/v % in left eye, both eyes Tropicamide 1%): 0.8 mm
difference between the pupils ([2]; at 1 and 2 hours following instillation of Caffeine in the left eye, both eyes Tropicamide 1%): approximately 0.8 mm
left eye pupil diameter ([2]; left eye (Tropicamide 1% then Caffeine 2 w/v %), 6.5 hrs from the baseline visit, returned to normal): 3.8 mm
Pupillary diameter Left eye ([2]; left eye, 30 mins post instillation of Caffeine 2 w/v %): 6.8 mm
Pupillary diameter Left eye ([2]; left eye, 60 mins post instillation of Caffeine 2 w/v %): 6.5 mm
Pupillary diameter Left eye ([2]; left eye, 2 hrs post instillation of Caffeine 2 w/v %): 6.3 mm
left eye pupillary diameter ([2]; left eye, 3 hrs from instillation of Caffeine 2 w/v %, 4 hrs from Tropicamide 1% (FIG. 4)): 5.9 mm
